According to patent publication US20210283089A1, “Use of fumaric acid esters and pharmaceutically acceptable salts thereof in preparing pharmaceuticals for treating ferroptosis-related diseases” (XIANGYA HOSPITAL CENTRAL SOUTH UNIVERSITY, priority 2018, published 2021):
Structures can show the parent of a compound that is named as a salt.

Key:
HepG2 and LO2 cells = test: Determination test of cell membrane lipid peroxidation level (MDA detection kit); assay type: cell-based, Human; conditions: 6 h; for cell membrane lipid peroxidation level (stimulus alone): 80 mM ethanol or 10 μM DOX alone
Method: Human hepatocytes HepG2 and LO2 cells are obtained from the cell bank of Xiangya Hospital. The medium is DMEM medium (HyClone, SH30022.01) and RPMI medium (HyClone, SH30809.01) containing 10% fetal bovine serum (Gibco, 10091148) and 100 U/mL ampicillin+streptomycin double-antibody (Gibco, 10378016). The cell incubator conditions are 37° C., constant temperature and humidity, and constant carbon dioxide concentration of 5%. DMSO, 1 μM of Erastin, 80 mM of ethanol, 10 μM of DOX, 10 μM DOX+10 μM dimethyl fumarate, 10 μM DOX+10 μM monomethyl fumarate, 10 μM DOX+1 μM Ferrostatin-1, 80 mM ethanol+10 μM dimethyl fumarate, 80 mM ethanol+10 μM monomethyl fumarate, and 80 mM ethanol+1 μM Ferrostatin-1 are respectively added to monolayer adherent hepatocytes HepG2 and LO2 cells. After being incubated for 6 h, the cells are gently rinsed with PBS buffer pre-cooled at 4° C. for 3 times, and every 1 million cells are homogenized with 0.1 mL of IP lysate (Beyotime, […]), and supernatant is collected after centrifugation at 4° C. The cell membrane lipid peroxidation level is measured by MDA detection kit (Beyotime, […]), specific operations are performed according to the instructions, and the test is repeated for three times.

[1] = system: GPX4 protein level of HepG2 and LO2 cells; test: Western Blot test 2: GPX4 protein level, DOX stimulation; assay type: cell-based, Human; conditions: 6 h
Method: The medium is DMEM medium (HyClone, SH30022.01) and RPMI medium (HyClone, SH30809.01) containing 10% fetal bovine serum (Gibco, 10091148) and 100 U/mL ampicillin+streptomycin double-antibody (Gibco, 10378016). The cell incubator conditions are 37° C., constant temperature and humidity, and constant carbon dioxide concentration of 5%. 10 μM of DOX, 10 μM DOX+10 μM dimethyl fumarate, 10 μM DOX+10 μM monomethyl fumarate, and 10 μM DOX+1 μM Ferrostatin-1 are respectively added to monolayer adherent hepatocytes HepG2 and LO2 cells. After being incubated for 6 h, the cells are gently rinsed with PBS buffer pre-cooled at 4° C. for 3 times, and then a total protein of the cells is extracted with RIPA lysate (Beyotime, P0013B). Specific operations are performed according to the instructions. After the concentration of the extracted protein is determined by BCA protein concentration determination kit (Beyotime, [MUT]), it is stored at -20° C. for later use. Each histone sample and 2×Loading Buffer are prepared at a volume ratio of 1:1, and placed in a metal bath at 100° C. to boil and denature for 10 min, then placed on ice to cool for 5 min, and a sample is waited to be loaded. Specific operations are performed according to the instructions. The test is repeated for three times.

HepG2 cells = test: GSH and GSSG level determination test; assay type: cell-based, Human; conditions: 10 μM and 30 μM, incubated 20 h; concentration-dependent
Method: Human hepatocytes HepG2 and LO2 cells are obtained from the cell bank of Xiangya Hospital. The medium is DMEM medium (HyClone, SH30022.01) and RPMI medium (HyClone, SH30809.01) containing 10% fetal bovine serum (Gibco, 10091148) and 100 U/mL ampicillin+streptomycin double-antibody (Gibco, 10378016). The cell incubator conditions are 37° C., constant temperature and humidity, and constant carbon dioxide concentration of 5%. Monolayer adherent HepG2 cells are digested with a trypsin into single-cell suspension, and the cells are plated on a 96-well plate at 4000 cells/well. After the cells are adhered for 4-6 h, DMSO, 10 μM of dimethyl fumarate, 30 μM of dimethyl fumarate, 10 μM of monomethyl fumarate and 30 μM of monomethyl fumarate are respectively added to the cell culture plate, and incubated for 20 h, GSH/GSSG-Glo™ Assay Kit (Promega, V6611) is used to detect the total GSH and GSSH of the cells. Specific operations are performed according to the instructions, and the experiment is repeated for three times.

[2] = system: GPX4 protein level of HepG2 and LO2 cells; test: Western Blot test 1: GPX4 protein level, ethanol stimulation; assay type: cell-based, Human; conditions: 6 h
Method: Human hepatocytes HepG2 and LO2 cells are obtained from the cell bank of Xiangya Hospital. The medium is DMEM medium (HyClone, SH30022.01) and RPMI medium (HyClone, SH30809.01) containing 10% fetal bovine serum (Gibco, 10091148) and 100 U/mL ampicillin+streptomycin double-antibody (Gibco, 10378016). The cell incubator conditions are 37° C., constant temperature and humidity, and constant carbon dioxide concentration of 5%. […] After being incubated for 6 h, the cells are gently rinsed with PBS buffer pre-cooled at 4° C. for 3 times, and then extracted for total protein of the cells with RI PA lysate (Beyotime, P0013B). Specific operations are performed according to the instructions. After the concentration of the extracted protein is determined by BCA protein concentration determination kit (Beyotime, [MUT]), it is stored at -20° C. for later use. Each group of protein sample and 2×Loading Buffer is prepared at a volume ratio of 1:1, and placed in a metal bath at 100° C. to boil and denature for 10 min, then placed on ice to cool for 5 min, and a sample is waited to be loaded. Specific operations are performed according to the instructions. The test is repeated for three times.

[3] = system: mouse liver of alcoholic fatty liver disease model; test: Inhibition test of ferroptosis in mouse liver of alcoholic fatty liver disease model; assay type: in vivo, C57BL/6 male mice; conditions: 100 mg/Kg or 200 mg/Kg, intragastric, once a day, 10 consecutive days; versus model group
Method: 24 8-week-old SPF-grade C57BL/6 male mice are randomly divided into 4 groups, namely a blank group, a model group, a model+low-dose dimethyl fumarate (100 mg/Kg) group and a model+high-dose dimethyl fumarate (200 mg/Kg) group. The mice are let free to drink Lieber-DeCarli control diet for 5 days to gradually adapt to liquid diet and tube feeding. Subsequently, the model group is allowed to drink freely with 5% (volume/volume) standard Lieber-DeCarli alcohol liquid diet for 10 days, while the control group uses isocaloric control diet. From the 11-th day, the model+administration group is respectively administrated with dimethyl fumarate (100 mg/Kg) and dimethyl fumarate (200 mg/Kg) by intragastric administration once a day for 10 consecutive days. After that, the mice are anesthetized with 5% chloral hydrate in abdominal cavity, and liver tissues are collected, partly fixed in 10% formalin, and partly stored in liquid nitrogen. Then the following tests are separately performed (the dimethyl fumarate in the drawings of the description is represented by DMF):
(§1) A specific method is as follows: a mouse liver tissue sample fixed in 10% formalin is dehydrated, paraffin-immersed and embedded, and the paraffin-embedded tissue is sectioned. […]
(§2) A specific method is as follows: the paraffin-embedded tissue sections are baked in a constant temperature oven at 65° C. for 60 min to dissolve the paraffin, and then sequentially put in xylene to dewax and be transparent, and hydrated in ethanol solution with the concentrations from high to low. After the tissue sections are rinsed with PBS solution, a reagent A in a ready-to-use immunohistochemical hypersensitive UltraSensitive™ SP kit (Maixin Biotech Company, KIT-9707) is respectively added dropwise to remove an endogenous peroxidase from the tissues, and a reagent B is blocked by goat serum. […]

[4] = system: mouse liver of hepatic fibrosis model; test: Inhibition test of ferroptosis in mouse liver of hepatic fibrosis model; assay type: in vivo, SD mice; conditions: 15 mg/Kg or 25 mg/Kg, intragastric, once a day, 8 weeks; versus model group
Method: 36 7-week-old SPF-grade SD mice of 200-250 g are randomly divided into 4 groups, namely a control group, a model group, a model+low-dose dimethyl fumarate (15 mg/Kg) group and a model+high-dose dimethyl fumarate (25 mg/Kg) group. In the model group, subcutaneous injection of 0.3 ml/100 g of 40% CCI4 peanut oil solution is used for modeling twice a week. It is started from the second week, 10% alcohol is used as the only beverage, the mice are fed with a corn meal feed mixed with 0.5% cholesterol, and modeling is continuously performed for 8 weeks. At the same time of modeling, the model+administration group are respectively given with dimethyl fumarate (15 mg/Kg) and dimethyl fumarate (25 mg/Kg) once a day by intragastric administration for 8 consecutive weeks. After that, the mice are anesthetized with 5% chloral hydrate in abdominal cavity, and the liver tissues are collected, partly fixed in formalin, and partly stored in liquid nitrogen. Then the following tests are separately performed (the dimethyl fumarate in the drawings of the description is represented by DMF):
as §1, §2

[5] = 10 μM DOX + 10 μM test substance
[6] = 80 mM ethanol + 10 μM test substance

Row | Structure (SMILES) | cell membrane lipid peroxidation level (stimulus alone) (HepG2 and LO2 cells) | GPX4 protein level (DOX alone) ([1]; 10 μM DOX) | GSH level of the HepG2 cells (HepG2 cells) | GSSH level of the HepG2 cells (HepG2 cells) | cell membrane lipid peroxidation level caused by DOX (HepG2 and LO2 cells; [5]) | cell membrane lipid peroxidation level caused by ethanol (HepG2 and LO2 cells; [6]) | GPX4 protein level of ethanol-stimulated cells [2, 6] | GPX4 protein level of DOX-stimulated cells [1, 5] | fatty degeneration of the hepatocytes and pericentral periphlebitis (H&E staining) [3] | liver 4-HNE protein level (immunohistochemistry) [3] | liver GPX4 protein level (immunohistochemistry, Western blot) [3] | liver 4-HNE protein level (immunohistochemistry) [4] | liver GPX4 protein level (immunohistochemistry) [4] | liver pathological changes (fatty degeneration, necrosis, periportal inflammation, fibrosis; H&E and Sirius Red staining) [4] | GPX4 protein level (ethanol alone) ([2]; 80 mM ethanol)
1 | COc1cccc2c1C(=O)c1c(O)c3c(c(O)c1C2=O)C[C@@](O)(C(=O)CO)C[C@@H]3O[C@H]1C[C@H](N)[C@H](O)[C@H](C)O1 [DOX, doxorubicin] | significantly up-regulate | significantly down-regulate | – | – | – | – | – | – | – | – | – | – | – | – | –
2 | COC(=O)/C=C/C(=O)OC [dimethyl fumarate, Dimethyl fumarate] | – | – | significantly up-regulate | significantly up-regulate | significantly inhibit | significantly inhibit | significantly up-regulate | significantly up-regulate | significantly reduced | significantly down-regulated | significantly up-regulated | significantly down-regulated | significantly up-regulated | significantly reduced | –
3 | CCO [ethanol] | significantly up-regulate | – | – | – | – | – | – | – | – | – | – | – | – | – | significantly down-regulate
